Like-named read-outs stand apart in the source and are kept apart here.

The experiment concerns the target T1, cloned human CCR8 receptor stably expressed in L1.2 cells (Homo sapiens, UniProt P51685).
T1 construct: expressed in transfected cells
The experiment can be described thus: whole cell binding screen: inhibition of biotinylated human I309 binding to CCR8 (FMAT 8100 HTS). The following applies: biotinylated human I-309, 10 point concentration response starting at 10 μM. A digest of the protocol:
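Ten-point dilutions, top 10 μM final, were tested for displacing biotin-I309 from hCCR8-transfected L1.2 cells in HEPES-buffered HBSS with BSA and sodium azide, mixing 0.5 h before FMAT 8100 detection. Signals converted to percent inhibition against untreated wells and a 100 nM excess unlabeled I309 control.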

The mark [1] stands for this setting: L1.2/hCCR8 cells, read-out: Ki of compounds to inhibit I-309 binding to CCR8.
Setting [2] is: Ki of compounds to inhibit I-309 binding to CCR8, L1.2/hCCR8 cells.

T1 sequence (P51685 whole entry): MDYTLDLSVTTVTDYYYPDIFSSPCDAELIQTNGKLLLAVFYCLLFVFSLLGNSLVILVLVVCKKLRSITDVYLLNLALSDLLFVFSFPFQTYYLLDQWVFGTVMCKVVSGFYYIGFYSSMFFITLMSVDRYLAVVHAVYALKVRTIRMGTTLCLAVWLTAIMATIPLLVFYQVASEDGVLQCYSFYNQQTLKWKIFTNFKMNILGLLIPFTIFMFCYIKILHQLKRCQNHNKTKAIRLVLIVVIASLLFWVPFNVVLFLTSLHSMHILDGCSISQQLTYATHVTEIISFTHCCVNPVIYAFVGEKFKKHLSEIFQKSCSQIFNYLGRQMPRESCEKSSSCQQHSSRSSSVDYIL

In general, Ki refers to the dissociation constant of the complex between target and ligand, obtained from inhibition or displacement. As for `Cc1ccccc1C(=O)Nc1ccc(S(=O)(=O)N[C@@H]2[C@H](C)CNC[C@@H]2C)c2ccccc12` [Compound C-68, (±)-(cisscis)-N-[4-(3,5-Dimethyl-piperidin-4-ylsulfamoyl)-naphthalen-1-yl]-2-methyl-benzamide], under setting [1], the inhibitory constant (Ki) is less than 30000 nM. `CCOC(=O)N1CCC(NS(=O)(=O)c2cccc3c(NC(=O)c4cccc(C)c4)cccc23)CC1` [Compound H-13, 4-[5-(3-Methyl-benzoylamino)-naphthalene-1-sulfonylamino]-piperidine-1-carboxylic acid ethyl ester]: the inhibition constant (Ki) under setting [1] was less than 30000 nM. Turning to `CCOC(=O)N1CCC(NS(=O)(=O)c2cccc3c(NC(=O)c4cc(C)oc4C)cccc23)CC1` [Compound H-20, 4-{5-[(2,5-Dimethyl-furan-3-carbonyl)-amino]-naphthalene-1-suffonylamino}-piperidine-1-carboxylic acid ethyl ester], the Ki under setting [1] was less than 1000 nM. With `CCCC(=O)N1CCC(NS(=O)(=O)c2cc3c(c(N4C(=O)c5ccccc5C4=O)c2)CCCC3)CC1` [Compound H-60, 4-(1,3-Dioxo-1,3-dihydro-isoindol-2-yl)-5,6,7,8-tetrahydro-naphthalene-2-sulfonic acid (1-butyryl-piperidin-4-yl)-amide], the Ki under setting [1] was less than 30000 nM.

Consider `O=C(Nc1ccc(S(=O)(=O)Nc2cccnc2)c2ccccc12)c1ccccc1` [Compound A-16, N-[4-(Pyridin-3-ylsulfamoyl)-naphthalen-1-yl]-benzamide], for which the inhibition constant (Ki) under setting [1] was less than 30000 nM. Turning to `Cc1ccccc1NC(=O)c1ccc(S(=O)(=O)NC2CCN(C(=O)N(C)C)CC2)c2ccccc12` [Compound F-12, 4-(4-o-Tolylcarbamoyl-naphthalene-1-sulfonylamino)-piperidine-1-carboxylic acid dimethylamide], under setting [1], the Ki is less than 500 nM. For `CCCC(=O)N1CCC(NS(=O)(=O)c2ccc(C(=O)Nc3ccccc3C)c3ccccc23)CC1` [Compound F-9, 4-(1-Butyryl-piperidin-4-ylsulfamoyl)-naphthalene-1-carboxylic acid o-tolylamide], the inhibition constant (Ki) under setting [1] is less than 500 nM. In the case of `Cc1ccccc1C(=O)Nc1ccc(S(=O)(=O)NCCCN2CCCC2=O)c2c1CCCC2` [Compound E-24, 2-Methyl-N-{4-[3-(2-oxo-pyrrolidin-1-yl)-propylsulfamoyl]-5,6,7,8-tetrahydro-naphthalen-1-yl}-benzamide], the Ki under setting [1] was less than 1000 nM. Take `CCOC(=O)N1CCC(NS(=O)(=O)c2ccc(CN(CC)C3CCCCC3)c3ccccc23)CC1` [Compound G-20, 4-{4-[(Cyclohexyl-ethyl-amino)-methyl]-naphthalene-1-sulfonylamino}-piperidine-1-carboxylic acid ethyl ester]: the Ki under setting [1] was less than 500 nM. As for `CC(C)(C)OC(=O)N1CCC(NS(=O)(=O)c2ccc(NC(=O)c3cccnc3)c3ccccc23)CC1` [Compound B-20, 4-{4-[(Pyridine-3-carbonyl)-amino]-naphthalene-1-sulfonylamino}-piperidine-1-carboxylic acid tert-butyl ester], under setting [1], the Ki is less than 1000 nM.

For the compound `CC(C)(C)OC(=O)N1CCC(NS(=O)(=O)c2ccc(NC(=O)C3CCCCC3)c3ccccc23)CC1` [Compound B-19, 4-[4-(Cyclohexanecarbonyl-amno)-naphthalene-1-sulfonylamino]-piperidine-1-carboxylic acid tert-butyl ester], the inhibition constant Ki under setting [1] is less than 500 nM. As for `O=C(Nc1cccc2c(S(=O)(=O)Nc3ccc(F)cc3)cccc12)c1ccccc1` [Compound H-4, N-[5-(4-Fluoro-phenylsulfamoyl)-naphthalen-1-yl]-benzamide], the inhibition constant (Ki) under setting [1] was less than 30000 nM.

Regarding `CCOC(=O)N1CCC(NS(=O)(=O)c2ccc(NC(=O)c3ccccc3)c3c2CCCC3)CC1` [Compound E-4, 4-(4-Benzoylamino-5,6,7,8-tetrahydro-naphthalene-1-sulfonylamino)-piperidine-1-carboxylic acid ethyl ester], the inhibition constant (Ki) under setting [1] is less than 1000 nM. Take `Cc1ccccc1C(=O)Nc1ccc(S(=O)(=O)NC2(C)CCNCC2)c2ccccc12` [Compound J-49]: the inhibition constant Ki under setting [1] is less than 500 nM. With `CCCC(=O)N1C[C@@H](C)[C@@H](NS(=O)(=O)c2ccc(NC(=O)c3ccccc3C)c3ccccc23)[C@@H](C)C1` [Compound C-69, (±)-(cisscis)-N-[4-(1-Butyryl-3,5-dimethyl-piperidin-4-ylsulfamoyl)-naphthalen-1-yl]-2-methyl-benzamide], the Ki under setting [1] is less than 1000 nM.

`Cc1ccccc1C(=O)Nc1ccc(S(=O)(=O)NC2CCN(C(=O)C(C)C)CC2)c2ccccc12` [Compound C-51, N-[4-(1-Isobutyryl-piperidin-4-ylsuffamoyl)-naphthalen-1-yl]-2-methyl-benzamide] gave a Ki under setting [2] of less than 500 nM.

Take `O=C(Nc1ccc(S(=O)(=O)NC2CCNCC2)c2ccccc12)C1CC1` [Compound D-12, Cyclopropanecarboxylic acid [4-(piperidin-4-ylsulfamoyl)-naphthalen-1-yl]-amide]: the inhibition constant (Ki) under setting [1] was less than 30000 nM. `Cc1ccccc1C(=O)Nc1ccc(S(=O)(=O)N[C@H]2CCNC[C@H]2C)c2ccccc12` [Compound J-50]: under setting [1], the inhibition constant Ki is less than 500 nM.

`COC(=O)N1CCC(NS(=O)(=O)c2ccc(NC(=O)c3ccccc3C)c3c2CCCC3)CC1` [Compound E-15, 4-[4-(2-Methyl-benzoylamino)-5,6,7,8-tetrahydro-naphthalene-1-sulfonylamino]-piperidine-1-carboxylic acid methyl ester]: the Ki under setting [1] was less than 500 nM. For `Cc1ccccc1C(=O)Nc1ccc(S(=O)(=O)N[C@H]2CCN(C(=O)OC(C)C)C[C@@H]2C)c2ccccc12` (racemic) [Compound C-18, (±)-trans-3-methyl-4-[4-(2-methyl-benzoylalino)-naphthalene-1-sulfonylamino]-piperidine-1-carboxylic acid isopropyl ester], the Ki under setting [1] was less than 500 nM.

With `Cc1ccccc1C(=O)Nc1ccc(S(=O)(=O)NC2[C@@H](C)CNC[C@@H]2C)c2ccccc12` (racemic) [Compound C-64, (±)-(cistrans)-N-[4-(3,5-Dimethyl-piperidin-4-ylsulfamoyl)-naphthalen-1-yl]-2-methyl-benzamide], the Ki under setting [1] was less than 500 nM. As for `CCCC(=O)N1CC[C@H](NS(=O)(=O)c2ccc(NC(=O)c3cccnc3C)c3ccccc23)[C@H](C)C1` (racemic) [Compound D-3, (±)-(cis)-N-[4-(1-Butyryl-3-methyl-piperidin-4-ylsulfamoyl)-naphthalen-1-yl]-2-methyl-nicotinamide], the Ki under setting [1] was less than 500 nM. Under setting [2], `Cc1ccccc1C(=O)Nc1ccc(S(=O)(=O)NC2CCN(C(=O)N(C)C)CC2)c2ccccc12` [Compound C-47, 4-[4-(2-Methyl-benzoylamino)-naphthalene-1-sulfonylamino]-piperidine-1-carboxylic acid dimethylamide] yielded a Ki of less than 500 nM. As to `Cc1ccccc1C(=O)Nc1ccc(S(=O)(=O)NC2CCN(C(=O)[C@H](C)N)CC2)c2ccccc12` [Compound C-120, (S)-N-{4-[1-(2-Amino-propionyl)-piperidin-4-ylsulfamoyl]-naphthalen-1-yl}-2-methyl-benzamide], under setting [1], the inhibition constant (Ki) was less than 500 nM.

In the case of `CN1CCCC(C(=O)Nc2ccc(S(=O)(=O)NC3CCNCC3)c3ccccc23)C1` [Compound D-22, 1-Methyl-piperidine-3-carboxylic acid [4-(piperidin-4-ylsulfamoyl)-naphthalen-1-yl]-amide], under setting [1], the inhibitory constant (Ki) is less than 30000 nM.

These data come from patent US7491827B2, “Aryl sulfonamides useful as inhibitors of chemokine receptor activity” (Millennium Pharmaceuticals, Inc., priority 2003, dated 2009).
